From patent US20040258620A1, “(Ethylene)-( propylene)-triaminepentaacetic acid derivatives, process for their production, and their use for the production of pharmaceutical agents” (priority 2001, published 2004)
Several values for one entry are separate records, joined by “and”; a condition that tells them apart may be missing. Equal entries are not always repeated.

Legend:
[1] = Proton relaxivities (1H NMRD profiles) of Gd(EPTPA-bz-NO2); assay type: physicochemical
Procedure: According to the ^17O chemical shifts, the complex has one inner sphere water molecule. […] The water exchange rate obtained for […]) is in the optimal range to attain high proton relaxivities. This property, together with the high thermodynamic stability, is a unique feature among Gd(III) chelates known so far and it makes […]) an ideal synthon to be attached to any rigid, slowly tumbling macromolecular agent. […] (bottom curve) and 25° C. (top curve).

[2] = Peak-to-peak line widths of the EPR band at 0.34 T; assay type: physicochemical; design: unit not given here
Description: (§1) The Gd(EPTPA-bz-NO2) complex (Formula VII, Z is NO2) has been investigated by ^17O NMR, EPR and ^1H NMRD.

[3] = Variable temperature 17O NMR relaxation rates and chemical shifts of GdEPTPA-bz-NO2; assay type: physicochemical; settings: for ^17O NMR T1 / ^17O NMR T2 / ^17O NMR ν / ^17O NMR chemical shift Δw / ^17O NMR reduced chemical shift Δwr: C = 55.79 mM; for ^17O NMR T1 / ^17O NMR T2 / ^17O NMR ν: pH = 6.0; for ^17O NMR chemical shift Δw / ^17O NMR reduced chemical shift Δwr: pH = 6.0, reference = HClO4
Description: as §1

[4] = Simultaneous analysis of 17O NMR, EPR and NMRD data
Description: The ^17O NMR, NMRD and EPR experimental data (points) and the fitted curves (lines) as obtained in a simultaneous analysis, according to the method of Powell et al., J. Am. Chem. Soc.

[5] = cited from earlier work

Work on O=C([O-])CN(CCCN(CC(=O)[O-])CC(Cc1ccc([N+](=O)[O-])cc1)N(CC(=O)[O-])CC(=O)[O-])CC(=O)[O-].[Gd+3] (stereo not shown) [Gd(EPTPA-bz-NO2)] yielded a Proton relaxivity ([1]; 24.8° C., proton Larmor frequency 0.022 MHz) of 8.54 mM⁻¹ s⁻¹, a Proton relaxivity ([1]; 24.8° C., proton Larmor frequency 0.036 MHz) of 8.63 mM⁻¹ s⁻¹ and a Proton relaxivity ([1]; 24.8° C., proton Larmor frequency 0.061 MHz) of 8.69 mM⁻¹ s⁻¹. It also gave a Proton relaxivity ([1]; 24.8° C., proton Larmor frequency 0.101 MHz) of 8.34 mM⁻¹ s⁻¹, a Proton relaxivity ([1]; 24.8° C., proton Larmor frequency 0.168 MHz) of 8.47 mM⁻¹ s⁻¹ and a Proton relaxivity ([1]; 24.8° C., proton Larmor frequency 0.280 MHz) of 8.55 mM⁻¹ s⁻¹. For the same compound, the Proton relaxivity ([1]; 24.8° C., proton Larmor frequency 0.467 MHz) was 8.21 mM⁻¹ s⁻¹, the Proton relaxivity ([1]; 24.8° C., proton Larmor frequency 0.778 MHz) was 8.29 mM⁻¹ s⁻¹ and 8.39 mM⁻¹ s⁻¹ and the Proton relaxivity ([1]; 24.8° C., proton Larmor frequency 2.159 MHz) was 7.41 mM⁻¹ s⁻¹. The Proton relaxivity ([1]; 24.8° C., proton Larmor frequency 3.598 MHz) was 7.23 mM⁻¹ s⁻¹, the Proton relaxivity ([1]; 24.8° C., proton Larmor frequency 5.999 MHz) was 6.33 mM⁻¹ s⁻¹ and the Proton relaxivity ([1]; 24.8° C., proton Larmor frequency 9.998 MHz) was 5.56 mM⁻¹ s⁻¹. For the same compound, the Proton relaxivity ([1]; 24.8° C., proton Larmor frequency 12.001 MHz) was 5.47 mM⁻¹ s⁻¹, the Proton relaxivity ([1]; 24.8° C., proton Larmor frequency 14.002 MHz) was 5.15 mM⁻¹ s⁻¹ and the Proton relaxivity ([1]; 24.8° C., proton Larmor frequency 16.000 MHz) was 4.98 mM⁻¹ s⁻¹. It also gave a Proton relaxivity ([1]; 24.8° C., proton Larmor frequency 18.002 MHz) of 4.91 mM⁻¹ s⁻¹, a Proton relaxivity ([1]; 24.8° C., proton Larmor frequency 20.001 MHz) of 4.73 mM⁻¹ s⁻¹ and a Proton relaxivity ([1]; 37.3° C., proton Larmor frequency 0.022 MHz) of 6.47 mM⁻¹ s⁻¹. The Proton relaxivity ([1]; 37.3° C., proton Larmor frequency 0.036 MHz) was 6.56 mM⁻¹ s⁻¹, the Proton relaxivity ([1]; 37.3° C., proton Larmor frequency 0.061 MHz) was 6.44 mM⁻¹ s⁻¹ and the Proton relaxivity ([1]; 37.3° C., proton Larmor frequency 0.101 MHz) was 6.90 mM⁻¹ s⁻¹. It also gave a Proton relaxivity ([1]; 37.3° C., proton Larmor frequency 0.168 MHz) of 6.55 mM⁻¹ s⁻¹, a Proton relaxivity ([1]; 37.3° C., proton Larmor frequency 0.280 MHz) of 6.57 mM⁻¹ s⁻¹ and a Proton relaxivity ([1]; 37.3° C., proton Larmor frequency 0.467 MHz) of 6.49 mM⁻¹ s⁻¹. The Proton relaxivity ([1]; 37.3° C., proton Larmor frequency 0.778 MHz) was 6.19 mM⁻¹ s⁻¹ and 6.36 mM⁻¹ s⁻¹, the Proton relaxivity ([1]; 37.3° C., proton Larmor frequency 2.159 MHz) was 5.80 mM⁻¹ s⁻¹ and the Proton relaxivity ([1]; 37.3° C., proton Larmor frequency 3.598 MHz) was 5.67 mM⁻¹ s⁻¹. The Proton relaxivity ([1]; 37.3° C., proton Larmor frequency 5.999 MHz) was 5.21 mM⁻¹ s⁻¹, the Proton relaxivity ([1]; 37.3° C., proton Larmor frequency 9.998 MHz) was 4.42 mM⁻¹ s⁻¹ and the Proton relaxivity ([1]; 37.3° C., proton Larmor frequency 12.001 MHz) was 4.18 mM⁻¹ s⁻¹. For the same compound, the Proton relaxivity ([1]; 37.3° C., proton Larmor frequency 14.002 MHz) was 4.20 mM⁻¹ s⁻¹, the Proton relaxivity ([1]; 37.3° C., proton Larmor frequency 16.000 MHz) was 4.26 mM⁻¹ s⁻¹ and the Proton relaxivity ([1]; 37.3° C., proton Larmor frequency 18.002 MHz) was 4.12 mM⁻¹ s⁻¹. For the same compound, the “ΔHpp, peak-to-peak line width of the EPR band” value (from here on “ΔHpp, peak-to-peak line width”) ([2]; T 3 ° C.) was 363.25, the “ΔHpp, peak-to-peak line width” value ([2]; T 23.5 ° C.) was 297.4 and the “ΔHpp, peak-to-peak line width” value ([2]; T 34.1 ° C.) was 286. For the same compound, the “ΔHpp, peak-to-peak line width” value ([2]; T 40.3 ° C.) was 280.2, the “ΔHpp, peak-to-peak line width” value ([2]; T 47.6 ° C.) was 283.15 and the “ΔHpp, peak-to-peak line width” value ([2]; T 56.3 ° C.) was 297.4. For the same compound, the “ΔHpp, peak-to-peak line width” value ([2]; T 72.4 ° C.) was 326, the “^17O NMR T1” value ([3]; T 274.5 K) was 0.00301 s and the “^17O NMR T2” value ([3]; T 274.5 K) was 0.00135 s. For the same compound, the “^17O NMR ν” value ([3]; T 274.5 K) was −3678.6 Hz, the “^17O NMR chemical shift Δw” value ([3]; T 274.5 K) was −133.1 Hz and the “^17O NMR reduced chemical shift Δwr” value ([3]; T 274.5 K) was −8.33E+05 Hz. The “^17O NMR T1” value ([3]; T 286.7 K) was 0.00428 s, the “^17O NMR T2” value ([3]; T 286.7 K) was 0.00167 s and the “^17O NMR ν” value ([3]; T 286.7 K) was −3686.0 Hz. For the same compound, the “^17O NMR chemical shift Δw” value ([3]; T 286.7 K) was −125.36 Hz, the “^17O NMR reduced chemical shift Δwr” value ([3]; T 286.7 K) was −7.84E+05 Hz and the “^17O NMR T1” value ([3]; T 293.5 K) was 0.00513 s. For the same compound, the “^17O NMR T2” value ([3]; T 293.5 K) was 0.00198 s, the “^17O NMR ν” value ([3]; T 293.5 K) was −3690.4 Hz and the “^17O NMR chemical shift Δw” value ([3]; T 293.5 K) was −125.25 Hz. For the same compound, the “^17O NMR reduced chemical shift Δwr” value ([3]; T 293.5 K) was −7.84E+05 Hz, the “^17O NMR T1” value ([3]; T 298.0 K) was 0.00599 s and the “^17O NMR T2” value ([3]; T 298.0 K) was 0.00263 s. For the same compound, the “^17O NMR ν” value ([3]; T 298.0 K) was −3705.7 Hz, the “^17O NMR chemical shift Δw” value ([3]; T 298.0 K) was −123.5 Hz and the “^17O NMR reduced chemical shift Δwr” value ([3]; T 298.0 K) was −7.73E+05 Hz. The “^17O NMR T1” value ([3]; T 306.7 K) was 0.00734 s, the “^17O NMR T2” value ([3]; T 306.7 K) was 0.00263 s and the “^17O NMR ν” value ([3]; T 306.7 K) was −3702.7 Hz. For the same compound, the “^17O NMR chemical shift Δw” value ([3]; T 306.7 K) was −120.4 Hz, the “^17O NMR reduced chemical shift Δwr” value ([3]; T 306.7 K) was −7.53E+05 Hz and the “^17O NMR T1” value ([3]; T 324.2 K) was 0.0104 s. The “^17O NMR T2” value ([3]; T 324.2 K) was 0.00425 s, the “^17O NMR ν” value ([3]; T 324.2 K) was −3751.5 Hz and the “^17O NMR chemical shift Δw” value ([3]; T 324.2 K) was −121.2 Hz. The “^17O NMR reduced chemical shift Δwr” value ([3]; T 324.2 K) was −7.58E+05 Hz, the “^17O NMR T1” value ([3]; T 338.7 K) was 0.0137 s and the “^17O NMR T2” value ([3]; T 338.7 K) was 0.00616 s. The “^17O NMR ν” value ([3]; T 338.7 K) was −3764.2 Hz, the “^17O NMR chemical shift Δw” value ([3]; T 338.7 K) was −99.4 Hz and the “^17O NMR reduced chemical shift Δwr” value ([3]; T 338.7 K) was −6.22E+05 Hz. The “^17O NMR T1” value ([3]; T 359.7 K) was 0.0189 s, the “^17O NMR T2” value ([3]; T 359.7 K) was 0.00967 s and the “^17O NMR ν” value ([3]; T 359.7 K) was −3803.0 Hz. For the same compound, the “^17O NMR chemical shift Δw” value ([3]; T 359.7 K) was −95.8 Hz, the “^17O NMR reduced chemical shift Δwr” value ([3]; T 359.7 K) was −5.99E+05 Hz and the “inner sphere water molecules of the complex” value ([3]; according to the ^17O chemical shifts) was “one”. For the same compound, the “water exchange rate kex^298” value [4] was 1.4e+08 s⁻¹ and the “water exchange rate, times higher than that measured on Gd(DTPA)” value ([4]; relative to Gd(DTPA)) was 40 times.
For O=C([O-])CN(CCCN(CC(=O)[O-])CC(=O)[O-])CCN(CC(=O)[O-])CC(=O)[O-].[Gd+3] [Gd(III)(EPTPA), Gd(III) complex of 3,6,10-tri(carboxymethly)-3,6,10-triazadodecanedioic acid], the “thermodynamic stability constant, logo” value ([5]; determined by potentiometry (Wang et al, Dalton, 1998)) is listed as 22.77.
In the case of O=C([O-])CN1CCCN(CC(=O)[O-])CCN(CC(=O)[O-])CCN(CC(=O)[O-])CC1.[Gd+3] [Gd(III)(TRITA)], the “thermodynamic stability constant, logβ” value ([5]; determined by potentiometry [Clarke and Martell, Inorg. Chim, Acta, 1991]) is listed as 19.2.
